Consider two compounds from patent publication US10035791B2, “Bicyclic compound and pharmaceutical composition thereof for treating stroke and use thereof” (China Medical University, priority 2016, dated 2018).

In one assay the test system is HIF-1α. Kind of assay: HIF-1α expressions in the PCCs with hypoxic treatment, Western blot. In kind it is cell-based, C57BL/6 mice. To be noted: 1 μM 2-ME2 for 16 hours, FIG. 6C. The protocol: (§1) Test cells are primary cortical cultures (PCCs) in this example. The PCCs are prepared from cerebral cortexes of gestation day 17 embryos from C57BL/6 mice as described previously (Cell Death Differ 2008; 15: 143-151). The PCCs are maintained under serum-free conditions in neurobasal medium (Invitrogen), supplemented with B-27 supplement (2%; invitrogen), glutamine (0.5 mM; Sigma Aldrich), glutamate ([…]; Sigma Aldrich), penicillin (100 U/ml) and streptomycin ([…]; Invitrogen). At 4 days in vitro, half of the medium is removed and replaced with fresh medium without glutamate. The cultures are maintained in a humidified incubator at 37° C. with 5% CO2. At 7 days in vitro, the PCCs are used for experimentation.
One group of the PCCs is transduced with LV-HIF-1α-sh (sc-35562-V, Santa Cruz Biotechnology) and LV-control-sh (sc-108080, Santa Cruz Biotechnology) by a lenti-viral infection to reduce the HIF-1α expressions. Another group of the PCCs is treated with 1 μM of 2-ME2 for 16 hours to reduce the HIF-1α expressions in the PCCs. In FIG. 6C, the HIF-1α expressions in the PCCs are decreased both in the LV-HIF-1α-sh transduced group and the 2-ME2 treated group.

The subject of another assay is ischemic rats. Kind of assay: Volume of the infarction after cerebral ischemia, TTC staining. The assay is classed as in vivo, Sprague-Dawley (SD) rats. The following applies: 0.1, 1, 10 mg/kg intraperitoneal, 2 days after treatment, vs control, in particular 1 mg/kg, FIGS. 17A, 17B. The text has this: The ischemic rats are induced by an ischemia-reperfusion model to simulate transient focal cerebral ischemia in rats. Test animals are male Sprague-Dawley (SD) rats weighing 250-300 g. The rats are anesthetized with chloral hydrate (0.4 g/kg IP) and subjected to cerebral ischemia. The ischemia-reperfusion model is induced by ligations of bilateral common carotid arteries (CCAs) and a right middle cerebral artery (MCA). The bilateral CCAs are clamped with non-traumatic arterial clips, and the right MCA is ligated with an 10-0 nylon suture. After 90 minutes ischemia, the suture on the MCA and the arterial clips on CCAs are removed to allow reperfusion. Core body temperature is monitored with a thermistor probe (Hewlett-Packard Model 21090A probe, Hewlett-Packard Company, Andover, Mass.), and maintained at 37° C. with a heating pad during anesthesia. After recovery from anesthesia, rat body temperature is maintained at 37° C. with a heat lamp.
In addition, the ischemic rats are intraperitoneal injected with different dosages of the Compound 1 (0.1 mg/kg, 1 mg/kg and 10 mg/kg). The ischemic rats intraperitoneal injected with vehicle are used as the control. At 2 days after the Compound 1 treatment, the ischemic rats are intracardially perfused with PBS. The brain tissues are removed, immersed in cold PBS, and sliced into 2-mm-thick sections. […]

For assay [1], the system named is primary cortical cultures (PCCs). Kind of assay: Lactate dehydrogenase (LDH) release rate analysis, H2O2-treated PCCs. In kind it is cell-based, C57BL/6 mice. The protocol: H2O2 can cause an oxidative damage to cells and a destruction of the cell membrane, and consequently the LDH is released into medium. For that reason, the lower rate of the LDH released into the culture medium is represented the fewer damaged cells and better cell protection effect of sample.
as §1
The PCCs are seeded in a 24-well plate and are allowed to stand for 20 minutes. […] The PCCs are maintained at 37° C. in a humidified atmosphere of 5% CO2 for 24 hours. After incubation, the culture medium is collected and washed twice with phosphate buffered saline (PBS), and then are analyzed the LDH activity in the culture medium by using LDH Cytotoxicity Detection Kit (TaKaRa Bio Laboratories, Japan) to calculate the percentage cytotoxicity, which is represented the situation of cells damage, of the PCCs. The lower percentage cytotoxicity presents the lower LDH activity detected and less severe of cells damages, which indicates the better cell protection effect of the sample. The LDH activity is measured by a colorimetry. After a reaction between enzyme and particular substrate, an absorbance of the reaction solution and the LDH activity is linearly correlated. The LDH activity (U/10^−3 L) is calculated by a reduced optical density slope at a wavelength of 340 nm within three minutes. A lactate dehydrogenase activity unit is defined as a catalytic consumption of […] NADH per minute.

SMILES strings stand for the structures. “Also recorded” adds a separate entry of the source.

For the compound `COc1cc2c(cc1O)CC[C@@H]1[C@@H]2CC[C@]2(C)[C@@H](O)CC[C@@H]12` [Compound 2-ME2, 2-Methoxyestradiol, reference compound], the “HIF-1α expressions in the PCCs” value in the assay with HIF-1α is recorded as “decreased”.
On to `COC(=O)C1=CO[C@@H](O)[C@@H]2C(COC(=O)[C@@H](N)Cc3ccccc3)=CC[C@H]12` [Compound 1], for which the “volume of the infarction (TTC staining)” value with ischemic rats is on record as “much smaller”. The “LDH release rate of the PCCs treated with H2O2” value is 30% in assay [1] (compound 0.1 μM, FIG. 1G) and “lower LDH release rate; also recorded: reduces most LDH release rate” in assay [1] (compound 100 μM, 10^-4 mol/L H2O2, 24 hours, FIG. 1F). Also, the “concentration at which the LDH release rate of the PCCs is reduced most” value in assay [1] (tested 0.1, 1, 10 and 100 μM, FIG. 1G) stood at 100 µM.
